Assay results published in ChEMBL document CHEMBL3885861, “Open TG-GATES”.

Species: Rattus norvegicus
Test: Open TG-GATES - Regimen: Single
Type: toxicity, organism-based, Sprague-Dawley
Design: regimen Single, gender Male, age 6 weeks
Conditions: in vivo, po, 300 mg/kg, route gavage, dose level High; for APTT / Bas / Eos / Fbg / Hb / Ht / Lym / MCH / MCHC / MCV / Mono / Neu / PT / Plat / RBC / Ret / WBC: tissue Blood; for KIDNEY_L / KIDNEY_R / KIDNEY_TOTAL: tissue Kidney; for LIVER: tissue Liver; for A/G / ALP / ALT / AST / BUN / CRE / Ca / Cl / DBIL / GLC / IP / K / LDH / Na / PL / RALB / TBIL / TC / TG / TP / gamma-GTP: tissue Plasma

Which results are given for `CCOC(=O)C(C)(C)Oc1ccc(Cl)cc1` [CLOFIBRATE]?
TERMINAL_BW (3 h): 225.9 g; APTT (3 h): 19.5 s; Bas (3 h): 0%; Eos (3 h): 1%; Fbg (3 h): 231.2 mg/dL; Hb (3 h): 13.5 g/dL; Ht (3 h): 39.3%; Lym (3 h): 78%; MCH (3 h): 21.4 pg; MCHC (3 h): 34.2%; MCV (3 h): 62.5 fL; Mono (3 h): 3%; Neu (3 h): 17.2%; PT (3 h): 12.5 s; Plat (3 h): 127.2 x10_4/uL; RBC (3 h): 629.6 x10_4/ul; Ret (3 h): 7.9%; WBC (3 h): 103.9 x10_2/uL; KIDNEY_L (3 h): 1 g; KIDNEY_R (3 h): 1 g; KIDNEY_TOTAL (3 h): 2 g; LIVER (3 h): 9.8 g; A/G (3 h): 1.6; ALP (3 h): 991.6 IU/L; ALT (3 h): 41.8 IU/L; AST (3 h): 73.2 IU/L; BUN (3 h): 10.4 mg/dL; CRE (3 h): 0.4 mg/dL; Ca (3 h): 11 mg/dL; Cl (3 h): 102.4 meq/L; DBIL (3 h): 0.1 mg/dL; GLC (3 h): 190 mg/dL; IP (3 h): 9.4 mg/dL; K (3 h): 3.6 meq/L; LDH (3 h): 260.6 IU/L; Na (3 h): 140.4 meq/L; PL (3 h): 149.6 mg/dL; RALB (3 h): 3.5 g/dL; TBIL (3 h): 0.2 mg/dL; TC (3 h): 73 mg/dL; TG (3 h): 76.2 mg/dL; TP (3 h): 5.6 g/dL; gamma-GTP (3 h): 0.6 IU/L; TERMINAL_BW (6 h): 227.7 g; APTT (6 h): 18.2 s; Bas (6 h): 0%; Eos (6 h): 1%; Fbg (6 h): 240.8 mg/dL; Hb (6 h): 13.4 g/dL; Ht (6 h): 38.8%; Lym (6 h): 76.4%; MCH (6 h): 21.1 pg; MCHC (6 h): 34.5%; MCV (6 h): 61.3 fL; Mono (6 h): 3.2%; Neu (6 h): 18.4%; PT (6 h): 12.7 s; Plat (6 h): 134.1 x10_4/uL; RBC (6 h): 633.8 x10_4/ul; Ret (6 h): 7.4%; WBC (6 h): 83.7 x10_2/uL; KIDNEY_L (6 h): 1 g; KIDNEY_R (6 h): 1 g; KIDNEY_TOTAL (6 h): 2 g; LIVER (6 h): 9.5 g; A/G (6 h): 1.6; ALP (6 h): 1008 IU/L; ALT (6 h): 35.8 IU/L; AST (6 h): 74.4 IU/L; BUN (6 h): 10.2 mg/dL; CRE (6 h): 0.4 mg/dL; Ca (6 h): 10.9 mg/dL; Cl (6 h): 102.8 meq/L; DBIL (6 h): 0.09 mg/dL; GLC (6 h): 195.6 mg/dL; IP (6 h): 9.5 mg/dL; K (6 h): 4 meq/L; LDH (6 h): 218.8 IU/L; Na (6 h): 140.4 meq/L; PL (6 h): 135 mg/dL; RALB (6 h): 3.5 g/dL; TBIL (6 h): 0.2 mg/dL; TC (6 h): 71 mg/dL; TG (6 h): 96.2 mg/dL; TP (6 h): 5.7 g/dL; gamma-GTP (6 h): 1.2 IU/L; TERMINAL_BW (9 h): 229.4 g; APTT (9 h): 18 s; Bas (9 h): 0%; Eos (9 h): 1%; Fbg (9 h): 235.6 mg/dL; Hb (9 h): 13.1 g/dL; Ht (9 h): 38.1%; Lym (9 h): 72.8%; MCH (9 h): 21 pg; MCHC (9 h): 34.5%; MCV (9 h): 61 fL; Mono (9 h): 2.8%; Neu (9 h): 22.8%; PT (9 h): 12.9 s; Plat (9 h): 140.4 x10_4/uL; RBC (9 h): 625.6 x10_4/ul; Ret (9 h): 7.1%; WBC (9 h): 69.9 x10_2/uL; KIDNEY_L (9 h): 1 g; KIDNEY_R (9 h): 1 g; KIDNEY_TOTAL (9 h): 2 g; LIVER (9 h): 9.4 g; A/G (9 h): 1.5; ALP (9 h): 1054.2 IU/L; ALT (9 h): 33 IU/L; AST (9 h): 70.4 IU/L; BUN (9 h): 10.8 mg/dL; CRE (9 h): 0.4 mg/dL; Ca (9 h): 10.5 mg/dL; Cl (9 h): 102.4 meq/L; DBIL (9 h): 0.09 mg/dL; GLC (9 h): 201 mg/dL; IP (9 h): 10.3 mg/dL; K (9 h): 3.7 meq/L; LDH (9 h): 203.6 IU/L; Na (9 h): 140.4 meq/L; PL (9 h): 116 mg/dL; RALB (9 h): 3.3 g/dL; TBIL (9 h): 0.1 mg/dL; TC (9 h): 53.8 mg/dL; TG (9 h): 81.8 mg/dL; TP (9 h): 5.5 g/dL; gamma-GTP (9 h): 1 IU/L; TERMINAL_BW (24 h): 236.8 g; APTT (24 h): 19.3 s; Bas (24 h): 0%; Eos (24 h): 0.8%; Fbg (24 h): 218.2 mg/dL; Hb (24 h): 13.5 g/dL; Ht (24 h): 38.6%; Lym (24 h): 77.2%; MCH (24 h): 21.2 pg; MCHC (24 h): 34.9%; MCV (24 h): 60.7 fL; Mono (24 h): 4%; Neu (24 h): 17.6%; PT (24 h): 13.3 s; Plat (24 h): 127.2 x10_4/uL; RBC (24 h): 636.8 x10_4/ul; Ret (24 h): 6.4%; WBC (24 h): 102.9 x10_2/uL; KIDNEY_L (24 h): 1 g; KIDNEY_R (24 h): 1.1 g; KIDNEY_TOTAL (24 h): 2.1 g; LIVER (24 h): 12.3 g; A/G (24 h): 1.7; ALP (24 h): 1007.8 IU/L; ALT (24 h): 38 IU/L; AST (24 h): 79 IU/L; BUN (24 h): 15.4 mg/dL; CRE (24 h): 0.4 mg/dL; Ca (24 h): 10.6 mg/dL; Cl (24 h): 100.4 meq/L; DBIL (24 h): 0.086 mg/dL; GLC (24 h): 201.2 mg/dL; IP (24 h): 7.5 mg/dL; K (24 h): 3.8 meq/L; LDH (24 h): 223.4 IU/L; Na (24 h): 140 meq/L; PL (24 h): 104.8 mg/dL; RALB (24 h): 3.5 g/dL; TBIL (24 h): 0.1 mg/dL; TC (24 h): 43.6 mg/dL; TG (24 h): 103.8 mg/dL; TP (24 h): 5.5 g/dL; gamma-GTP (24 h): 1.4 IU/L
